Laboratory results from patent publication US10357539B2, “Use of peptides that block metadherin-SND1 interaction as treatment for cancer” (THE TRUSTEES OF PRINCETON UNIVERSITY, priority 2014, dated 2019).

B1: murine SND1 R255E: shRNA-resistant murine SND1 mutant R255E (protein, UniProt Q78PY7 2-910, looked up, variant R255E)
Staphylococcal nuclease …: ASSAQSSGSSGGPAVPTVQRGIVKMVLSGCAIIVRGQPRGGPPPERQINLSNIRAGNLARRAAATQPDGKDTPDEPWAFPAREFLRKKLIGKEVCFTIENKTPQGREYGMIYLGKDTNGENIAESLVAEGLATRREGMRANNPEQNRLSECEEQAKASKKGMWSEGNGSHTIRDLKYTIENPRHFVDSHHQKPVNAIIEHVRDGSVVRALLLPGHHLVTVMLSGIKCPTFRRETDGSETPEPFAAEAKFFTESELLQRDVQIILESCHNQNLLGTILHPNGNITELLLKEGFARCVDWSIAVYTRGAEKLRAAERFAKERRLRIWRDYVPPTANLDQKDKQFVAKVMQVLNADAIVVKLNSGDYKTIHLSSIRPPRLEGDNIQDKNKKLRPLYDIPYMFEAREFLRKKLIGKKVNVTVDYIRPASPATETVPAFSERTCATVTIGGINIAEALVSKGLATVIRYRQDDDQRSSHYDELLAAEARAIKNGKGLHSKKEVPIHRVADISGDTQKAKQFLPFLQRAGRSEAVVEYVFSGSRLKLYLPKETCLITFLLAGIECPRGARNLPGLVQEGEPFSEEATLFTKELVLQREVEVEVESMDKAGNFIGWLHMDGANLSVLLVEQALSKVHFTAERSAYYKPLLSAEEAAKQRKEKVWAHYEERPVEEVMPVLEEKERSASYKPVFVTEITDDLHFYVQDVETGTQLEKLMENMRNDISSHPPVEGSYAPRRGEFCIAKFVDGEWYRARVEKVESPAKVHVFYIDYGNREILPSTRLGTLPPAFSTRVLPAQATEYAFAFIQVPQDEDARTDAVDSVVRDIQNTQCLLNVEHLSASCPHVTLQFADSKGDVGLGLVKEGLVMVEVRKEKQFQKVITEYLNAQESAKSARLNLWRYGDFRADDADEFGYSR
modifications: shRNA-resistant

Key:
SND1 = SND1 protein levels in MECs treated with CPT (western blot); format: cell-based, mouse; details: PyMT;Mtdh+/+ pMECs, CPT at indicated concentrations for 36 hours
Method: (§1) FIGS. 9A-I illustrates that MTDH confers survival advantage by interacting with and stabilizing pro-survival protein SND1 under stress. (FIG. 9A) Quantification of cleaved caspase 3-positive MECs from normal or MMTV-PyMT preneoplastic glands (n>3) of WT (left column) or KO females (right column). (FIG. 9B) The effect of CPT on the apoptosis of PyMT;Mtdh−/− pMECs reconstituted with indicated Mtdh constructs (left column: VEC; middle column: WT; right column: W391D) was determined by PI and Hoechst staining. (FIG. 9C) The effect of CPT on the apoptosis of control (left column) or SND1-KD (right column) PyMT;Mtdh+/+ pMECs. (FIG. 9D) Protein levels of SND1 and β-actin (loading control) in control or MTDH-KD PyMT;Mtdh+/+ pMECs treated with CPT at indicated concentrations for 36 hours. Degradation curve (right) represents the average of 3 independent experiments. (FIG. 9E) Western blotting of SND1, MTDH and β-actin (loading control) in PyMT;Mtdh−/− MECs reconstituted with indicated constructs after CPT treatment for 48 hours. Degradation curves (right) represent average of 3 independent experiments. […] Z scores were calculated based on gene expression changes and gene functions as specified by the ingenuity knowledge base. […]

PyMT;Mtdh−/− pMECs = experiment: CPT-induced apoptosis of MECs (PI and Hoechst staining); format: cell-based, mouse; details: CPT to induce DNA replication stress
Method: as §1

MTDH = target: T1, MTDH (Mus musculus, UniProt Q80WJ7); experiment: Anti-MTDH immunoprecipitation from SND1-KD PyMT;Mtdh+/+ tumor cells reconstituted with murine SND1; format: cell-based; details: shRNA-resistant construct in SND1-KD PyMT;Mtdh+/+ tumor cells
T1 construct: endogenous in cells; host or cells: SND1-KD PyMT;Mtdh+/+ mouse mammary tumor cells
T1 sequence (Q80WJ7 1-579): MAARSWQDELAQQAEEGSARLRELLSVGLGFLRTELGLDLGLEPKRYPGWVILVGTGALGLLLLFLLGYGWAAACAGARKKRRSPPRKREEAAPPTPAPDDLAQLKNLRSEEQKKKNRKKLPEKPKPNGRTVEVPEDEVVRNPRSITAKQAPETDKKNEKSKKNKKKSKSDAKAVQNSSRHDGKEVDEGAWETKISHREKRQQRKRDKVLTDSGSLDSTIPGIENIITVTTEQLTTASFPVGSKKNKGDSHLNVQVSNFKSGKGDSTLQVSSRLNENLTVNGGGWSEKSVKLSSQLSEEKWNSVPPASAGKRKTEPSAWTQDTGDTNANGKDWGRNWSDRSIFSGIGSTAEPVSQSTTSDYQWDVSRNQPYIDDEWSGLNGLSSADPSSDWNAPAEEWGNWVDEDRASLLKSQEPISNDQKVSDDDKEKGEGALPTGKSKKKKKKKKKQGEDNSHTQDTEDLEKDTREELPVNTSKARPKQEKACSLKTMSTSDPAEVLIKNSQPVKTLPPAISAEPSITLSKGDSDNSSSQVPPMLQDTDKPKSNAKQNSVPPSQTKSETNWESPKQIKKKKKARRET
Method: (FIG. 24A) Lysates from SND1-KD PyMT;Mtdh+/+ tumor cells reconstituted with vector control, WT or mutant shRNA-resistant murine SND1 were immunoprecipitated with anti-MTDH antibody and immunoblotted for indicated proteins. (FIG. 24B) Mammosphere assays were performed with SND1-KD PyMT;Mtdh+/+ tumor cells reconstituted with vector control or indicated SND1 constructs. (FIG. 24C, FIG. 24D) Mammary tumor incidence (FIG. 24C) and tumor growth curve (FIG. 24D) after orthotopic transplantations of SND1-KD PyMT;Mtdh+/+ tumor cells reconstituted with indicated constructs. Statistics: (FIG. 24B, FIG. 24D) Student's t-test. Data represent mean±SEM. (FIG. 24C) Chi-square test. […], *p<0.01, *p<0.05.
Immunoprecipitation and western blot: For in vivo immunoprecipitation (IP) experiments, cultured cells were washed in cold PBS and lysed in lysis buffer (20 mM Tris pH 7.4, 0.15 M NaCl, 1 mM EDTA, 1 mM EGTA, 1% Tx-100, 0.0025 M Na2P2O7, 1 mM β-glycerolphosphate, 1 mM Na3VO4, and 1 mM NaF) with an EDTA-free protease inhibitor mixture (Roche Applied Science) and PMSF. Cell lysates were then incubated on ice for 10 min, centrifuged, and precleared by incubating with protein A/G beads (Santa Cruz Biotechnology) for 1 h at 4° C. For IP bead preparation, 30 μl of protein A/G beads were incubated with 5 μg of antibodies for 2 h at 4° C. […]

Molecule | SND1 protein levels (SND1) | apoptosis of MECs (PyMT;Mtdh−/− pMECs) | interaction of murine SND1 mutants with MTDH (MTDH)
CC[C@@]1(O)C(=O)OCc2c1cc1n(c2=O)Cc2cc3ccccc3nc2-1 [CPT, camptothecin] | drug dosage-dependent decrease of SND1 protein levels | induced apoptosis of MECs in a dosage-dependent manner | 
B1 |  |  | nearly completely abolished the interaction with MTDH
